Results on one molecule are retold here after patent US20210386757A1, “Methods of Treating Menopausal Symptoms Using Low Dose Progesterone” (priority 2018, published 2021).

For series [1], the system named is symptoms associated with menopause transition. The experiment in a line: Observational study of low dose oral micronized progesterone in menopause transition, Menopause Rating Scale (MRS). The class given is in vivo, women. An excerpt: Women between the ages of 40 to 55 years of age who were experiencing symptoms consistent with menopause transition were offered a trial of a low dose progesterone to alleviate their symptoms. The primary complaint for inclusion in the study was alterations in mood defined as depressive mood, irritability, or anxiety on the Menopause Rating Scale (MRS). A score of 2-4 on these mood changes was required to be included in the study. One additional symptom (sleep problems, hot flushes, physical and mental exhaustion) on the MRS was required, with a minimum score of 1, to be included. Patients with a history of breast cancer, actively trying to conceive, or in menopause were excluded from the study. Menopause was defined as no menses for greater than one year or surgical removal of the ovaries. Patients were consented for a trial of oral micronized progesterone at 25 mg twice a day. Response to treatment was evaluated in the office after 3 months of treatment. Data was collected over a one-year time period, September 2018-September 2019. The menopause transition time, referred to as perimenopause, includes both the early and late perimenopausal group. Patient selection was classified according to STRAW (Stages of Reproductive Aging Workshop) classification. Late perimenopause was defined as menstruation in the previous/last 2-12 months, but not in the previous/last 2 months. Early perimenopause was defined as increasing irregularity of menses without skipping periods (7 days difference) from the beginning of a given cycle to the next. The Menopause Rating Scale was utilized to quantify qualitative symptoms associated with the menopause transition. Given treatment differences in the symptoms that impact person transitioning through menopause, attention was focused on 6 components of the MRS; hot flushes, sleep problems, depressive mood, irritability, anxiety, and physical/mental exhaustion. The scoring scheme increases point by point with increasing severity of subjectively perceived symptoms in each of those 6 items (severity 0 [no complaints] . . . 4 scoring points [very severe symptoms]). The respondent rated their personal symptoms on a 0 to 4 scale for each item. The MRS was chosen as a result of being a reliable measure of quality of life in aging women of various regions over time.

Series [2] concerns symptoms of the menopause transition state. Put plainly: Trial of progesterone for treating symptoms of the menopause transition state (Example 1). It is filed as in vivo, women. As to conditions: greater than 100 patients, low dose e.g. 25 mg twice a day. As to the method: It is apparent based on initial observations that supplementing with a low dose progesterone alleviates symptoms in women transitioning into menopause. The question then becomes, if a person is experiencing symptoms of estrogen dominance does failing to treat estrogen dominance result in a greater risk of breast cancer, uterine cancer, and cardiovascular disease. Supplementing with progesterone, e.g., at 25 mg twice a day can improve many symptoms associated with menopause transition. […] Micronized progesterone (25 mg) Dosing regimens of interest: One tablet bid (twice a day); Two tablets qhs (each night at bedtime); One tablet qam (every morning), two tablets qhs (each night at bedtime).

As for `CC(=O)[C@H]1CC[C@H]2[C@@H]3CCC4=CC(=O)CC[C@]4(C)[C@H]3CC[C@]12C` [micronized progesterone, progesterone], the “response of patients who altered the dosing regimen” value in series [1] (once a day or two tablets (50 mg) at night, 14 patients excluded from the study) was “noted benefits and chose to continue the medication”. The “patients with at least a one-point improvement in MRS symptom score, physical and mental exhaustion” value in series [1] (oral 25 mg twice a day, 3 months, 12 of 19 patients who noted physical and mental exhaustion) is listed as 63%. In series [1] (oral 25 mg twice a day, 3 months, 27 of 32 patients who noted sleep problems), the “patients with at least a one-point improvement in MRS symptom score, sleep problems” value came to 84%. In series [1] (oral 25 mg twice a day, 3 months, 44 of 48 patients who noted hot flushes), the “patients with at least a one-point improvement in MRS symptom score, hot flushes” value was 92%. Moreover, the “patients who did not report side effects to the medication” value in series [1] (oral 25 mg twice a day, 3 months, of 55 patients evaluated) turned out to be 54 patients. In addition, the “patients reporting MRS symptom score of 0” value in series [1] (oral 25 mg twice a day, at 3 months, 44 of 55 patients) was 80%. In series [1] (oral 25 mg twice a day, during the study period), the “discontinuation because of a diagnosis of breast cancer, thromboembolic event, or abnormal uterine bleeding” value is “No patient discontinued the medication”. The “patients with at least a two-point improvement in MRS symptom score related to mood changes” value in series [1] (oral 25 mg twice a day, evaluated at 3 months, 52 of 55 patients) was determined as 94.5%. In addition, the “discontinuation because of an adverse effect” value in series [1] (oral 25 mg twice a day, prior to the 3 month follow up) is reported as “One patient discontinued the medication prior to the 3 month follow up secondary to worsening headaches”. In addition, in series [2], the “subsequent diagnosis of breast cancer, uterine cancer, or a cardiovascular event” value was “not one patient was subsequently diagnosed with breast cancer, uterine cancer, or a cardiovascular event”.
